Measured values published in patent US20220071952A1, “METHODS OF TREATING AND PREVENTING HEPATOTOXICITY” (Natreon, Inc., priority 2020, published 2022).

Experiments:
[1] = system: CCl4-induced hepatotoxicity in mice; assay: Synergistic hepatoprotective activity of DBPs against CCl4-induced hepatotoxicity (Example IV); settings: CCl4 1 ml/kg, Ursocol 250 mg/kg b.w., mean ± SEM, n=4
[2] = system: alcohol-induced hepatotoxicity in mice; assay: Synergistic hepatoprotective activity of DBPs against alcohol-induced hepatotoxicity (Example IV); settings: for ACP / ALP / ALT / AST / Total Protein: alcohol 5 g/kg, Ursocol 250 mg/kg b.w., mean ± SEM, n=4
Protocol: Hepatotoxicity was induced by oral administration of alcohol (ethanol: 5 g/kg) from stock 400 mg/ml twice daily for 15 days.
3-OH-DBP and 3,8-(OH)2-DBP were each separately suspended in 0.3% CMC and administered at a dose of 10 mg/kg body weight per orally for 15 days. During the 15 days treatment, body weight, food intake, and water intake were monitored at regular intervals. Following 15 days of treatment physical parameters (relative organ weight) and biochemical parameters (plasma total protein content, ALT, AST, ALP, and ACP) were studied.
3-OH-DBP (2 mg/kg body weight, 10 mg/kg body weight);
3,8-(OH)2-DBP (10 mg/kg body weight, 50 mg/kg body weight); and

C[C@H](CCC(=O)O)[C@H]1CC[C@H]2[C@@H]3[C@@H](O)C[C@@H]4C[C@H](O)CC[C@]4(C)[C@H]3CC[C@]12C [Ursocol, ursodeoxycholic acid, reference compound]
ACP ([1]; female mice): 29 ± 3.3 U/L | ALP ([1]; female mice): 45 ± 6.9 IU/L | ALT ([1]; female mice): 50 ± 5.6 IU/L | AST ([1]; female mice): 49 ± 6.8 IU/L | Total Protein ([1]; female mice): 6 ± 0.22 g/dL | ACP ([1]; male mice): 22 ± 4.4 ^ U/L | ALP ([1]; male mice): 60 ± 9.9 ^ IU/L | ALT ([1]; male mice): 21 ± 2.6 ^ IU/L | AST ([1]; male mice): 18 ± 3.4 ^ IU/L | Total Protein ([1]; male mice): 6 ± 0.55 g/dL | ACP ([2]; female mice): 2.4 ± 0.47 U/L | ALP ([2]; female mice): 49 ± 6.5 IU/L | ALT ([2]; female mice): 26.63 ± 2.85 IU/L | AST ([2]; female mice): 25.39 ± 4.08 IU/L | Total Protein ([2]; female mice): 5.97 ± 0.53 g/dL | ACP ([2]; male mice): 3.19 ± 0.36 U/L | ALP ([2]; male mice): 86.1 ± 3.73 IU/L | ALT ([2]; male mice): 26.6 ± 1.94 ^ IU/L | AST ([2]; male mice): 24.3 ± 3.84 IU/L | Total Protein ([2]; male mice): 8.83 ± 0.16 g/dL | Relative liver weight ([2]; male mice, alcohol study of Example IV): significantly increased
